Consider 23 compounds from PMC9048505 (RSC Advances, 2020).

For one data set, the system named is MCF-7. Nature of the data set: In vitro anti-proliferative activity, MTT assay, MCF-7. Conditions: for IC50: Homo sapiens, MCF7, MTT, 24 h treatment, mean ± S.D. of three separate experiments. The format is cell-based, human. How it is done: (§1) The cells were obtained from ATCC (American Type Culture Collection) via the Holding company for biological products and vaccines (VACSERA) (Cairo, Egypt). […] After incubation period, the cell lines were treated with different concentration of the synthesized compounds and incubated for 24 h. After treatment by 24 h, 20 μL of MTT solution (5 mg mL^−1) was added and incubated for 4 h. Dimethyl sulfoxide (100 μL) was added into each well to dissolve the formed purple formazan. […] The relative cell viability in percentage was calculated as (A570 of treated samples/A570 of untreated sample) X 100.

The subject of the next data set is HepG-2. Description: In vitro anti-proliferative activity, MTT assay, HepG-2. The data set is classed as cell-based, human. Conditions: for IC50: Homo sapiens, HepG2, MTT, 24 h treatment, mean ± S.D. of three separate experiments. How it is done:
as §1
On the technique in general: Formazan colour is commonly taken as a measure of viable cells.

In the next data set the test system is HCT-116. Description: In vitro anti-proliferative activity, MTT assay, HCT-116. The data set is classed as cell-based, human. Particulars: for IC50: Homo sapiens, HCT-116, MTT, 24 h treatment, mean ± S.D. of three separate experiments. How it is done: as §1
In the next data set the target is T1, purified bovine tubulin (Bos taurus, UniProt P81947+Q6B856).
T1 construct: purified bovine tubulin (10 μM); from tissue; host or cells: bovine
T1 sequence (Q6B856 whole entry): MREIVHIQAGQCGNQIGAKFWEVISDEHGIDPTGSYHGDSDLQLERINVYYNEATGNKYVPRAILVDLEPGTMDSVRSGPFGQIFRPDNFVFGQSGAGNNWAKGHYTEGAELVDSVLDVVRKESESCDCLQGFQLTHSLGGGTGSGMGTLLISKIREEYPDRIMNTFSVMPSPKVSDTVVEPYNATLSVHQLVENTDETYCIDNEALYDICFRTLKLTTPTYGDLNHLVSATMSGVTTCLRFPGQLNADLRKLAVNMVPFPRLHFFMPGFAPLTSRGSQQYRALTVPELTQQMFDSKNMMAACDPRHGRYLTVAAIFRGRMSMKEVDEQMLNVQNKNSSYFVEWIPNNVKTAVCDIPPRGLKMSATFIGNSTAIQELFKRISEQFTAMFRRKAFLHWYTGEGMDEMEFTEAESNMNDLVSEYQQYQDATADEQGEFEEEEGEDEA
T1 sequence (P81947 whole entry): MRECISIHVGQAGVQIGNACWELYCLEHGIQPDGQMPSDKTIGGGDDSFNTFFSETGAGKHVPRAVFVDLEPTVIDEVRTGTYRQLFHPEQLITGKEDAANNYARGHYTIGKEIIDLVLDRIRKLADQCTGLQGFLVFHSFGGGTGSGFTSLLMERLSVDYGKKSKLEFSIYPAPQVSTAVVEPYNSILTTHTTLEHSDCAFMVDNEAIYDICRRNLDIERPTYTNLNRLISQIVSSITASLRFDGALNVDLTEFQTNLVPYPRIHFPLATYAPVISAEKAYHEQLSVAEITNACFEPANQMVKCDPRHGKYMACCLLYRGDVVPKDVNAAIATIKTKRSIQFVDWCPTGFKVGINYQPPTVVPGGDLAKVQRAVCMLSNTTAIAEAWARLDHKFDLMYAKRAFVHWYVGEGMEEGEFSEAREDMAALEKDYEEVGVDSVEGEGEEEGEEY
Nature of the data set: In vitro tubulin polymerization assay. Conditions: purified bovine tubulin 10 μM, 37 °C; read-out: IC50 Tubulin polymerization inhibition. The data set is classed as biochemical. How it is done: The inhibition assay on microtubule polymerization was evaluated turbidimetrically using a fluorescent plate reader.[52]

The structures appear in SMILES notation.

With `C/C(=N\NC(N)=S)c1ccc(C)cc1` [Compound 3a, (E)-2-(1-(p-Tolyl)ethylidene)hydrazine-1-carbothioamide], the IC50 in the data set on MCF-7, in the data set on HepG-2 and in the data set with HCT-116 was more than 50 µM each time.
`COc1ccc(/C(C)=N/NC(N)=S)cc1OC` [Compound 3b, (E)-2-(1-(3,4-Dimethoxyphenyl)ethylidene)hydrazine-1-carbothioamide]: the melting point lay in the range of 205 to 207 °C. The IC50 on purified bovine tubulin stood at 0.0445 ± 0.0023 µM. In addition, half-maximal inhibition with MCF-7 (IC50) required 22.4 ± 1 µM. This compound also displayed an IC50 with HepG-2 of 12.9 ± 0.4 µM. In the data set with HCT-116, this compound showed an IC50 of 17.3 ± 1.4 µM.
`COc1ccc(/C=C2/N=C(N/N=C(\C)c3ccc(C)cc3)SC2=O)cc1` [Compound 4a, 4-((E)-4-Methoxybenzylidene)-2-(2-((E)-1-(p-tolyl)ethylidene)hydrazinyl) thiazol-5(4H)-one] gave a melting point of 248 to 250 °C. The same compound gave a 50% inhibitory concentration (IC50) in the data set on MCF-7 of more than 50 µM. Further, the IC50 with HepG-2 stood at 34 ± 30.9 µM. Besides, it took 45.6 ± 3.5 µM to reach half-maximal inhibition in the data set on HCT-116 (IC50).
The matching figures for `C/C(=N\NC1=N/C(=C/c2ccc(Cl)cc2)C(=O)S1)c1ccc(C)cc1` [Compound 4b, 4-((E)-4-Chlorobenzylidene)-2-(2-((E)-1-(p-tolyl)ethylidene)hydrazinyl) thiazol-5(4H)-one]: 266 to 268 °C, 22.4 ± 1 µM, 11.14 ± 0.1 µM and 18.2 ± 1.3 µM.
Take `C/C(=N\NC1=N/C(=C/c2ccc(O)cc2)C(=O)S1)c1ccc(C)cc1` [Compound 4c, 4-((E)-4-Hydroxybenzylidene)-2-(2-((E)-1-(p-tolyl)ethylidene)hydrazinyl) thiazol-5(4H)-one]: the melting point fell in the range of 272 to 274 °C. This compound also yielded an IC50 with MCF-7 of 41.8 ± 1.2 µM. Moreover, the IC50 in the data set on HepG-2 stood at 35.2 ± 0.8 µM. The IC50 in the data set on HCT-116 worked out at 38.5 ± 2.5 µM.
`C/C(=N\NC1=N/C(=C/c2ccc(Cl)cc2Cl)C(=O)S1)c1ccc(C)cc1` [Compound 4d, 4-((E)-2,4-Dichlorobenzylidene)-2-(2-((E)-1-(p-tolyl)ethylidene)hydrazinyl) thiazol-5(4H)-one] had a melting point of more than 300 °C. The IC50 on purified bovine tubulin came out at 0.0197 ± 0.0008 µM. Half-maximal inhibition with MCF-7 (IC50) required 14.8 ± 0.6 µM. Further, the IC50 in the data set with HepG-2 was determined as 6.6 ± 0.1 µM. In the data set on HCT-116, this compound registered an IC50 of 10.6 ± 0.4 µM.
The matching figures for `COc1ccc(/C=C2/N=C(N/N=C(\C)c3ccc(C)cc3)SC2=O)cc1OC` [Compound 4e, 4-((E)-3,4-Dimethoxybenzylidene)-2-(2-((E)-1-(p-tolyl)ethylidene)hydrazinyl) thiazol-5(4H)-one]: 254 to 256 °C, 0.0474 ± 0.0018 µM, 18.2 ± 0.5 µM, 12.44 ± 0.1 µM and 13 ± 0.2 µM.
With `C/C(=N\NC1=N/C(=C/c2ccc(O)cc2O)C(=O)S1)c1ccc(C)cc1` [Compound 4f, 4-((E)-2,4-Dihydroxybenzylidene)-2-(2-((E)-1-(p-tolyl)ethylidene)hydrazinyl) thiazol-5(4H)-one], the IC50 at purified bovine tubulin worked out at 0.00933 ± 0.0003 µM; with MCF-7 it was 4.46 ± 0.1 µM; in the data set on HepG-2, 2.89 ± 0.1 µM; in the data set with HCT-116 it was 5.66 ± 0.1 µM. The “times as active as colchicine against MCF-7” value in the data set with MCF-7 (ratio of IC50 values) came out at 2.34 times. For the same compound, in the data set on HepG-2 (ratio of IC50 values), the “times as active as colchicine against HepG-2” value is listed as 2.57 times. Also, in the data set on HCT-116 (ratio of IC50 values), the “times as active as colchicine against HCT-116” value is 1.64 times.
Compound `COc1ccc(/C=C2/N=C(N/N=C(\C)c3ccc(OC)c(OC)c3)SC2=O)cc1` [Compound 4g, 2-(2-((E)-1-(3,4-Dimethoxyphenyl)ethylidene)hydrazinyl)-4-((E)-4-methoxybenzylidene) thiazol-5(4H)-one] registered a melting point of 240 to 242 °C. The compound further yielded an IC50 with MCF-7 of 17.4 ± 0.5 µM. The compound further yielded an IC50 in the data set on HepG-2 of 8.68 ± 0.1 µM. In the data set with HCT-116, this compound displayed an IC50 of 12.9 ± 0.6 µM.
The matching figures for `COc1ccc(/C(C)=N/NC2=N/C(=C/c3ccc(O)cc3)C(=O)S2)cc1OC` [Compound 4h, 2-(2-((E)-1-(3,4-Dimethoxyphenyl)ethylidene)hydrazinyl)-4-((E)-4-hydroxybenzylidene)thiazol-5(4H)-one]: 290 to 292 °C, 48.8 ± 1.4 µM, 37.5 ± 0.8 µM and 41.8 ± 1.6 µM.
The matching figures for `COc1ccc(/C(C)=N/NC2=N/C(=C/c3ccc(Cl)cc3Cl)C(=O)S2)cc1OC` [Compound 4i, 4-((E)-2,4-Dichlorobenzylidene)-2-(2-((E)-1-(3,4-dimethoxyphenyl)ethylid-ene)hydrazineyl) thiazol-5(4H)-one]: more than 300 °C, 40.1 ± 1.9 µM, 31.9 ± 0.8 µM and 40.5 ± 1.1 µM.
`COc1ccc(/C=C2/N=C(N/N=C(\C)c3ccc(OC)c(OC)c3)SC2=O)cc1OC` [Compound 4j, 4-((E)-3,4-Dimethoxybenzylidene)-2-(2-((E)-1-(3,4-dimethoxyphenyl)ethylid-ene)hydrazinyl)thiazol-5(4H)-one] came in with a melting point of 232 to 236 °C. This compound gave an IC50 in the data set on MCF-7 of 43.3 ± 1.8 µM. Inhibition with HepG-2 was half-maximal at 32.6 ± 0.9 µM (IC50). The compound further gave an IC50 in the data set with HCT-116 of 22.9 ± 0.7 µM.
`COc1ccc(/C(C)=N/NC2=N/C(=C/c3ccc(O)cc3O)C(=O)S2)cc1OC` [Compound 4k, 4-((E)-2,4-Dihydroxybenzylidene)-2-(2-((E)-1-(3,4-dimethoxyphenyl)ethylid-ene)hydrazinyl)thiazol-5(4H)-one]: the melting point is more than 300 °C. Besides, at purified bovine tubulin, the IC50 came to 0.05001 ± 0.0004 µM. In addition, the IC50 in the data set with MCF-7 came to 13.9 ± 0.5 µM. This compound also gave an IC50 in the data set with HepG-2 of 12.2 ± 0.4 µM. Further, in the data set on HCT-116, inhibition was half-maximal at 11.7 ± 0.3 µM (IC50).
For `COc1ccc(/C(C)=N/NC2=N/C(=C/c3cccs3)C(=O)S2)cc1OC` [Compound 5b, (E)-2-(2-((E)-1-(3,4-Dimethoxyphenyl)ethylidene)hydrazinyl)-4-(thiophen-2-ylmethylene)thiazol-5(4H)-one], the melting point was in the range of 208 to 210 °C. In addition, the IC50 in the data set on MCF-7 worked out at 21.8 ± 1 µM. In addition, in the data set with HepG-2, the midpoint of inhibition, the IC50, lay at 17.5 ± 0.7 µM. In the data set with HCT-116, this compound gave an IC50 of 18.4 ± 0.2 µM.
On to `C/C(=N\NC(N)=S)c1cccs1` [Compound 7a, (E)-2-(1-(Thiophen-2-yl)ethylidene)hydrazine-1-carbothioamide], for which the half-inhibitory concentration (IC50) in the data set on MCF-7, with HepG-2 and with HCT-116 was more than 50 µM throughout.
As to `C/C(=N\NC(N)=S)c1ccco1` [Compound 7b, (E)-2-(1-(Furan-2-yl)ethylidene)hydrazine-1-carbothioamide], the IC50 in the data set with MCF-7, in the data set with HepG-2 and with HCT-116 was more than 50 µM each time.
The compound `COc1ccc(/C=C2/N=C(N/N=C(\C)c3cccs3)SC2=O)cc1` [Compound 8a, 4-((E)-4-Methoxybenzylidene)-2-(2-((E)-1-(thiophen-2-yl)ethylidene)hydra-zinyl)thiazol-5(4H)-one] showed a melting point of 243 to 245 °C. In the data set on MCF-7, the midpoint of inhibition, the IC50, lay at 32.1 ± 1.2 µM. This compound gave an IC50 in the data set with HepG-2 of 26.6 ± 0.9 µM. In the data set with HCT-116, this compound had an IC50 of 35.5 ± 2 µM.
`C/C(=N\NC1=N/C(=C/c2ccc(Cl)cc2)C(=O)S1)c1cccs1` [Compound 8b, 4-((E)-4-Chlorobenzylidene)-2-(2-((E)-1-(thiophen-2-yl)ethylidene)hydra-zinyl)thiazol-5(4H)-one] came in with a melting point of 252 to 254 °C. In the data set on MCF-7, this compound registered an IC50 of 18.2 ± 0.6 µM. This compound also yielded an IC50 in the data set with HepG-2 of 19.5 ± 0.7 µM. Besides, in the data set with HCT-116, the IC50 amounted to 18.7 ± 0.6 µM.
The matching figures for `C/C(=N\NC1=N/C(=C/c2ccc(O)cc2)C(=O)S1)c1cccs1` [Compound 8c, 4-((E)-4-Hydroxybenzylidene)-2-(2-((E)-1-(thiophen-2-yl)ethylidene)hydra-zinyl)thiazol-5(4H)-one]: 178 to 180 °C, 19 ± 0.5 µM, 12.2 ± 0.3 µM and 17.2 ± 0.9 µM.
The compound `C/C(=N\NC1=N/C(=C/c2ccc(Cl)cc2Cl)C(=O)S1)c1cccs1` [Compound 8d, 4-((E)-2,4-Dichlorobenzylidene)-2-(2-((E)-1-(thiophen-2-yl)ethylidene) hydrazinyl)thiazol-5(4H)-one] gave a melting point of 274 to 276 °C. The compound also registered an IC50 with MCF-7 of more than 50 µM. In addition, half-maximal inhibition in the data set with HepG-2 (IC50) required 45.3 ± 1.2 µM. Half-maximal inhibition in the data set on HCT-116 (IC50) required 48.6 ± 1.8 µM.
The matching figures for `COc1ccc(/C=C2/N=C(N/N=C(\C)c3cccs3)SC2=O)cc1OC` [Compound 8e, 4-((E)-3,4-Dimethoxybenzylidene)-2-(2-((E)-1-(thiophen-2-yl)ethylidene) hydrazinyl) thiazol-5(4H)-one]: 248 to 250 °C, 25.8 ± 0.6 µM, 27.8 ± 0.5 µM and 34.7 ± 1 µM.
The matching figures for `C/C(=N\NC1=N/C(=C/c2ccc(Cl)cc2Cl)C(=O)S1)c1ccco1` [Compound 8j, 4-((E)-2,4-Dichlorobenzylidene)-2-(2-((E)-1-(furan-2-yl)ethylidene) hydrazinyl) thiazol-5(4H)-one]: 264 to 266 °C, more than 50 µM, more than 50 µM and more than 50 µM.
The matching figures for `C/C(=N\NC1=N/C(=C/c2cccs2)C(=O)S1)c1ccco1` [Compound 9b, (E)-2-(2-((E)-1-(Furan-2-yl)ethylidene)hydrazinyl)-4-(thiophen-2-ylmethylene) thiazol-5(4H)-one]: 203 to 205 °C, more than 50 µM, 45.1 ± 0.7 µM and more than 50 µM.

For orientation: IC50 means the concentration needed to halve the response being measured. The melting point is the temperature, or range, at which the solid turns liquid.
